# According to paper PMC11784145, “Efficacy and in vitro pharmacological assessment of novel N-hydroxypyridinediones as hepatitis B virus ribonuclease H inhibitors” (Antimicrobial Agents and Chemotherapy, 2024):
# How the values were obtained:
# [1] = Parallel artificial membrane permeability assay (PAMPA); assay type: in vitro ADME; conditions: for Papp 4 (PAMPA): pH 7.4, replicate 4
# Method: Compound Papp values were determined by normalizing the experimental compound absorbance to the compounds’ absorbances at equilibrium, membrane porosity, buffer volume, and time (s). Two or more replicate assays were obtained on separate days for each pH.
# [2] = test system: HBV replication (HBV plus-polarity DNA strand); assay: HBV replication inhibition, strand preferential qPCR in hepDES19 cells; assay type: cell-based, hepatitis B virus; conditions: for EC50: 72 h exposure, HBV plus-polarity strand suppression, highest concentration tested 100 µM, mean ± SD, read-out: HepDES19 EC50
# Method: HBV replication inhibition was measured in hepDES19 cells following 72 h compound exposure without compound replenishment. EC50 values were determined by HBV plus-polarity strand suppression using a strand preferential qPCR assay, as described previously ([28]). Three or more replicate values were obtained on different days.
# Microsome stability = assay type: in vitro ADME, human; conditions: human, microsomes
# Method: Human liver microsomes (gender pooled, 50 individuals) were purchased from BioIVT and stored at −80°C until use. […] Reactions were initiated by addition of 1.2 mM NADPH. […] Microsomal proteins were pelleted at 4,000 × g and the supernatant was analyzed via LCMS/MS. […] The ln percent remaining values were plotted against time, the negative slope was taken (k), and compound half-life (t1/2) was determined using ln2/k. Intrinsic clearance (Clint [µL/min/mg]) was calculated by (V × ln2)/t1/2, where V is the incubation volume (µL) divided by the protein concentration in the reaction (mg) ([31]).
# [3] = Solubility limit, turbidimetric assay; assay type: physicochemical; conditions: upper limit 200 µM
# Method: Solubility limits were determined by a turbidimetric assay, as described ([27]), with the solubility limit being defined as the compound concentration where light scattering began to rise. Two or more replicate assays were performed for each compound at each pH on different days.
# [4] = target: T1, human ribonuclease H1 (huRNase H1) (Homo sapiens, UniProt O60930); assay: Human RNase H1 inhibition, fluorescent biochemical assay
# T1 construct: made in house; host or cells: Escherichia coli
# T1 sequence (O60930 1-286): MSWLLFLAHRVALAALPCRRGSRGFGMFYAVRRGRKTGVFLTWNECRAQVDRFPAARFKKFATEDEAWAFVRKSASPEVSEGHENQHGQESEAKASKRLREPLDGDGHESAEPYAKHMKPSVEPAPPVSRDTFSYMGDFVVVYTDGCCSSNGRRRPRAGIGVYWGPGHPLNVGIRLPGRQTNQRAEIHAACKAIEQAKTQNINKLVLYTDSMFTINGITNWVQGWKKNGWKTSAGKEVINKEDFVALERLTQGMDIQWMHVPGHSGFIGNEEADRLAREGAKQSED
# Method: Recombinant human ribonuclease H1 (huRNase H1) was expressed in Escherichia coli and purified by nickel affinity chromatography, as described previously ([30]). […] The heteroduplex substrate was prepared, as described by Ponzar et al. ([30]). Reactions were initiated by the addition of MgCl2 (5 mM final) and were performed on a Biotek Synergy HTX multi-mode plate reader at 28°C.
# Maximum rates of fluorescence increase were calculated using the Biotek Gen5 v3.15 software and percentage activity was determined for each compound concentration by subtracting rates from no enzyme reactions and normalizing to DMSO reactions. […] Reactions were performed at least three times on separate days.
# HepDES19 cells = conditions: read-out: HepDES19 CC50; 72 h, MTS; highest concentration tested 100 µM; mean ± SD
# Method: HepDES19 cells were plated on 96-well tissue culture-treated plates (Greiner) at 1.0 × 10^4 cells per well and incubated for 48 h. Cells were treated with titrated concentrations of compound or 1% DMSO vehicle for 72 h, and cellular viability was measured by 3-(4,5-dimethylthiazol-2-yl)−5-(3-carboxymethoxyphenyl)−2-(4-sulfophenyl)−2H-tetrazolium (MTS) assays, as described previously ([20]). […] Three or more replicate assays were done on different days.
# MDCK-MDR1 cells = assay: MDCK-MDR1 permeability assay; assay type: in vitro ADME; conditions: MDCK-MDR1 cells, 10 µM compound, 2 h; actively effluxed if >2
# Method: MDCK-MDR1 cells were seeded on 96-well, high protein binding immobilon-P membrane plates (Millipore Sigma) at 2.4 × 10^4 cells per well for 4 days. Media were then decanted, and the cells were equilibrated with Hanks balanced salt solution (HBSS) supplemented with 10 mM CaCl2 and 1 mM MgCl2 for 1 h. Compound (10 µM) was then added to the apical side to assess active transport and to the basolateral side to assess active efflux. The cells were incubated with compound for 2 h with shaking at 37°C. Samples (50 µL) were retrieved from the recipient wells and mixed with 150 µL acetonitrile (ACN) and internal standard (1:1 of 200 ng/mL chloridazon:enalapril). Samples were pelleted at 4,000 × g and the supernatant was analyzed by liquid-chromatography/tandem mass spectrometry (LCMS/MS) analyses. […]. Active efflux was determined by Papp B/A/Papp A/B.
# Tight junction formation was assessed by lucifer yellow permeation immediately following sample retrieval. Briefly, lucifer yellow (10 µM) was added to the apical wells and HBSS was added to the basolateral wells for 1 h with shaking at 37°C, after which sample was collected from the basolateral side and read on a Biotek Synergy HTX multi-mode plate reader with 485/20 excitation and 520/20 emission filters defined by the Center Wavelength/band-pass values. The percent lucifer yellow fluorescence was determined by subtracting the HBSS relative fluorescent units (RFU) from the sample RFU and normalizing to the lucifer yellow positive control RFU. Lucifer yellow permeation was determined to be acceptable if ≤3%.
# [5] = pH 5 (fed simulated intestinal fluid)
# [6] = pH 6.5 (fasted simulated intestinal fluid)
Compound,Avg Papp (PAMPA) ([1]; FeSSIF pH 5) [cm/s],Interpretation (PAMPA Papp) ([1]; FeSSIF pH 5),"Papp 1 (PAMPA) ([1]; FeSSIF pH 5, replicate 1) [cm/s]","Papp 2 (PAMPA) ([1]; FeSSIF pH 5, replicate 2) [cm/s]",Avg Papp (PAMPA) ([1]; pH 7.4) [cm/s],Interpretation (PAMPA Papp) ([1]; pH 7.4),"Papp 1 (PAMPA) ([1]; pH 7.4, replicate 1) [cm/s]","Papp 2 (PAMPA) ([1]; pH 7.4, replicate 2) [cm/s]","Papp 3 (PAMPA) ([1]; pH 7.4, replicate 3) [cm/s]",HepDES19 SI (CC50/EC50) [2],EC50 [2] [nM],"Average Sol (solubility limit) [3, 5] [µM]","Sol 1 (solubility limit) ([3]; pH 5, replicate 1) [µM]","Sol 2 (solubility limit) ([3]; pH 5, replicate 2) [µM]","Average Sol (solubility limit) [3, 6] [µM]","Sol 1 (solubility limit) ([3]; pH 6.5, replicate 1) [µM]","Sol 2 (solubility limit) ([3]; pH 6.5, replicate 2) [µM]",Average Sol (solubility limit) ([3]; pH 7.4 (DMEM-F12 with 10% FBS)) [µM],"Sol 1 (solubility limit) ([3]; pH 7.4, replicate 1) [µM]","Sol 2 (solubility limit) ([3]; pH 7.4, replicate 2) [µM]",also measured
CC(=NOCc1ccc(Cl)cc1)c1c(C)cc(=O)n(O)c1O [Compound 1466],2.04e-05,H (H: Papp > 1*10-6),2.32e-05,1.76e-05,1.69e-06,H (H: Papp > 1*10-6),2.99e-07,2.48e-06,2.29e-06,130,359 ± 240,> 200,> 200,> 200,> 200,> 200,> 200,> 200,> 200,> 200,Half-life (Microsome stability): >30 min; Selectivity of HBV replication inhibition over huRNase H1 (huRNase H1 IC50 versus HBV EC50) [4]: at least 10 fold; CC50 (HepDES19 cells): 46.6 ± 13.6 µM
CC(=NOCc1ccc(F)cc1F)c1c(C)cc(=O)n(O)c1O [Compound 1464],3.62e-05,H (H: Papp > 1*10-6),1.44e-05,5.01e-05,2.49e-06,H (H: Papp > 1*10-6),2.62e-06,2.31e-06,2.3e-06,281,188 ± 63,> 200,> 200,> 200,> 200,> 200,> 200,> 200,> 200,> 200,"Papp 3 (PAMPA) ([1]; FeSSIF pH 5, replicate 3): 4.42e-05 cm/s; Papp 4 (PAMPA) [1]: 2.73e-06 cm/s; Half-life (Microsome stability): >30 min; Sol 3 (solubility limit) ([3]; pH 5, replicate 3): > 200 µM; Efflux Ratio (Papp B-A/A-B) (MDCK-MDR1 cells): 1.04; Selectivity of HBV replication inhibition over huRNase H1 (huRNase H1 IC50 versus HBV EC50) [4]: at least 10 fold; CC50 (HepDES19 cells): 63.6 ± 27 µM"
CC(=NOCc1ccc(C)cc1)c1c(C)cc(=O)n(O)c1O [Compound 1462],1.01e-05,H (H: Papp > 1*10-6),1.47e-05,5.56e-06,1.44e-06,H (H: Papp > 1*10-6),5.13e-07,9.71e-07,2.84e-06,112,295 ± 122,> 200,> 200,> 200,> 200,> 200,> 200,> 200,> 200,> 200,"Clearance (intrinsic clearance, Clint) (Microsome stability): 34.8 µL/min/mg; Half-life (Microsome stability): >30 min; Efflux Ratio (Papp B-A/A-B) (MDCK-MDR1 cells): 1.31; Selectivity of HBV replication inhibition over huRNase H1 (huRNase H1 IC50 versus HBV EC50) [4]: at least 10 fold; CC50 (HepDES19 cells): 33.1 ± 5.24 µM"
CC(=NOCc1cc(F)ccc1F)c1c(C)cc(=O)n(O)c1O [Compound 1810],2.07e-05,H (H: Papp > 1*10-6),1.72e-05,2.42e-05,3.23e-06,H (H: Papp > 1*10-6),1.13e-06,2.26e-06,7.59e-06,54.0,1850 ± 758,167,100,> 200,100,100,100,167,> 200,100,"Papp 4 (PAMPA) [1]: 1.29e-06 cm/s; Papp 5 (PAMPA) ([1]; pH 7.4, replicate 5): 3.89e-06 cm/s; Sol 3 (solubility limit) ([3]; pH 5, replicate 3): > 200 µM; Sol 3 (solubility limit) ([3]; pH 7.4, replicate 3): > 200 µM; IC50 ([4]; recombinant huRNase H1, RNA:DNA heteroduplex substrate): 820 nM; CC50 (HepDES19 cells): > 100 µM"
